IC50 data for 19 compounds are collected here from US11299478B2, “2-cyanopyrimidin-4-yl carbamate or urea derivative or salt thereof, and pharmaceutical composition including same” (HANLIM PHARMACEUTICAL CO., LTD., priority 2018, dated 2022).

Holding throughout (assay type): biochemical
One test has as its target cathepsin B (Homo sapiens, UniProt P07858). Briefly: Inhibitory activity assay against cathepsin B (enzyme assay). To be noted: Z-Arg-Arg-AMC 40 μM, enzyme 1 nM, pH 6.0, 90 minutes. How it is done: In order to measure the enzyme activity of cathepsin B, a buffer solution (pH 6.0) consisting of 50 mM MES, 5 mM DTT, 2.5 mM EDTA, 0.005% Polysorbate 20, and 10% DMSO was prepared. The substrate, the test material, and the enzyme were mixed in the buffer solution in a predetermined concentration. The Z-Arg-Arg-AMC substrate was used in the final concentration of 40 μM. The test material was used in the final concentrations of 10.0 μM, 3.33 μM, 1.11 μM, 0.370 μM, 0.123 μM, 0.0412 μM, 0.0137 μM, 0.00457 μM, 0.00152 μM, and 0.000508 μM, respectively. The cathepsin B enzyme was used in the final concentration of 1 nM. The final volume of the enzyme reaction solution was 10 μL. After reacting the mixture of substrate, test material, and enzyme for 90 minutes, the enzyme activity was measured with the EnVision (Perkin Elmer) microplate reader at an absorption wavelength of 340 nm and an emission wavelength of 460 nm. IC50 values were determined using 4-parameter logistic curve fit program of GraphPad Prism.

For a further test, the target named is T1, cathepsin K (Homo sapiens, UniProt P43235).
T1 sequence (P43235 115-329): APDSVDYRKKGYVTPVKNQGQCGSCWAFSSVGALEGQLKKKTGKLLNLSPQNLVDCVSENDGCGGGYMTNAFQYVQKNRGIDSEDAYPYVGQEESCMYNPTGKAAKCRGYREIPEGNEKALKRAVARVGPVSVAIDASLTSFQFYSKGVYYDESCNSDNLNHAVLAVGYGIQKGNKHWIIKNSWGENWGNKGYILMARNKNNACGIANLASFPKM
Description: Inhibitory activity assay against cathepsin K (enzyme assay). To be noted: Z-Phe-Arg-AMC 10 μM, enzyme 1 nM, pH 5.5, 30 minutes. How it is done:
In order to measure the enzyme activity of cathepsin K, a buffer solution (pH 5.5) consisting of 50 mM 2-(N-morpholino)ethanesulfonic acid (MES), 2 mM dithiothreitol (DTT), 2.5 mM ethylenediaminetetraacetic acid (EDTA), 0.01% Triton X-100, and 10% dimethyl sulfoxide (DMSO) was prepared. The substrate, the test material, and the enzyme were mixed in the buffer solution in a predetermined concentration. The Z-Phe-Arg-AMC substrate was used in the final concentration of 10 μM. The test material was used in the final concentrations of 10.0 μM, 3.33 μM, 1.11 μM, 0.370 μM, 0.123 μM, 0.0412 μM, 0.0137 μM, 0.00457 μM, 0.00152 μM, and 0.000508 μM, respectively. The cathepsin K enzyme was used in the final concentration of 1 nM. The final volume of the enzyme reaction solution was 10 μL. After reacting the mixture of substrate, test material, and enzyme for 30 minutes, the enzyme activity was measured with the Synergy Neo (Biotek) microplate reader at an absorption wavelength of 355 nm and an emission wavelength of 460 nm. IC50 values were determined using 4-parameter logistic curve fit program of GraphPad Prism.

The target of another test is cathepsin L (Homo sapiens, UniProt P07711). Briefly: Inhibitory activity assay against cathepsin L (enzyme assay). As to conditions: Z-Phe-Arg-AMC 2 μM, enzyme 3 nM, pH 5.5, 30 minutes. How it is done: In order to measure the enzyme activity of cathepsin L, a buffer solution (pH 5.5) consisting of 50 mM MES, 2.5 mM DTT, 2.5 mM EDTA, 0.005% Polysorbate 20, and 10% DMSO was prepared. The substrate, the test material, and the enzyme were mixed in the buffer solution in a predetermined concentration. The Z-Phe-Arg-AMC substrate was used in the final concentration of 2 μM. The test material was used in the final concentrations of 10.0 μM, 3.33 μM, 1.11 μM, 0.370 μM, 0.123 μM, 0.0412 μM, 0.0137 μM, 0.00457 μM, 0.00152 μM, and 0.000508 μM, respectively. The cathepsin L enzyme was used in the final concentration of 3 nM. The final volume of the enzyme reaction solution was 10 μL. After reacting the mixture of substrate, test material, and enzyme for 30 minutes, the enzyme activity was measured with the EnVision (Perkin Elmer) microplate reader at an absorption wavelength of 340 nm and an emission wavelength of 460 nm. IC50 values were determined using 4-parameter logistic curve fit program of GraphPad Prism.
Chain of cathepsin L (P07711 114-333, species assumed): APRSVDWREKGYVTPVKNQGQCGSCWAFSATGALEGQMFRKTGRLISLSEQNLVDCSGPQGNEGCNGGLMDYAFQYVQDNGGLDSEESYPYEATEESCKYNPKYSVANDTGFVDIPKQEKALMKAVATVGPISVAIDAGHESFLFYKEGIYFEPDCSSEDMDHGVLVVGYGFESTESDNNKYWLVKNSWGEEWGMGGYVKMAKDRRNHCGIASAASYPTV

The next test addresses cathepsin S (Homo sapiens, UniProt P25774). Briefly: Inhibitory activity assay against cathepsin S (enzyme assay). As to conditions: Z-Phe-Arg-AMC 70 μM, enzyme 3 nM, pH 6.5, 45 minutes. How it is done: In order to measure the enzyme activity of cathepsin S, a buffer solution (pH 6.5) consisting of 50 mM MES, 2.5 mM DTT, 1.0 mM EDTA, 0.001% bovine serum albumin (BSA), and 10% DMSO was prepared. The substrate, the test material, and the enzyme were mixed in the buffer solution in a predetermined concentration. The Z-Phe-Arg-AMC substrate was used in the final concentration of 70 μM. The test material was used in the final concentrations of 10.0 μM, 3.33 μM, 1.11 μM, 0.370 μM, 0.123 μM, 0.0412 μM, 0.0137 μM, 0.00457 μM, 0.00152 μM, and 0.000508 μM, respectively. The cathepsin S enzyme was used in the final concentration of 3 nM. The final volume of the enzyme reaction solution was 10 μL.
After reacting the mixture of substrate, test material, and enzyme for 45 minutes, the enzyme activity was measured with the EnVision (Perkin Elmer) microplate reader at an absorption wavelength of 340 nm and an emission wavelength of 460 nm. IC50 values were determined using 4-parameter logistic curve fit program of GraphPad Prism.

Structures are written as SMILES.

Chain of cathepsin S (P25774 115-331, species assumed): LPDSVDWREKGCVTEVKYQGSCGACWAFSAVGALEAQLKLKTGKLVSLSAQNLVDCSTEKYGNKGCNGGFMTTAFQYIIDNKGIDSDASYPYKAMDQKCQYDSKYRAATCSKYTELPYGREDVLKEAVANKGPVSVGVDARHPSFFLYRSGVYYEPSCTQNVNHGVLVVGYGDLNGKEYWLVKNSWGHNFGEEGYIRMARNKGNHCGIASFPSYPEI

In general, IC50 refers to the midpoint of a concentration-inhibition curve. Consider `N#Cc1nccc(C2(NC(=O)OCc3ccc(Br)cc3)CCCC2)n1` [Example 2, 4-bromobenzyl (1-(2-cyanopyrimidin-4-yl)cyclopentyl)carbamate], for which the IC50 against cathepsin B is over 10000 nM; at cathepsin K, 21.8 nM; against cathepsin L, over 10000 nM; against cathepsin S, over 10000 nM.
In the case of `N#Cc1nccc(C2(NC(=O)OCc3cccc(Br)c3)CCCC2)n1` [Example 3, 3-bromobenzyl (1-(2-cyanopyrimidin-4-yl)cyclopentyl)carbamate], the 50% inhibitory concentration (IC50) was over 10000 nM against cathepsin B, 507 nM on cathepsin K, 6390 nM against cathepsin L and over 10000 nM against cathepsin S.
With `N#Cc1nccc(C2(NC(=O)OCCc3ccccc3)CCCC2)n1` [Example 4, phenethyl (1-(2-cyanopyrimidin-4-yl)cyclopentyl)carbamate], the IC50 against cathepsin B is over 10000 nM; on cathepsin K it was 1150 nM; against cathepsin L it was over 10000 nM; on cathepsin S it was over 10000 nM.
`N#Cc1nccc(C2(NC(=O)OCc3cccc(F)c3)CCCC2)n1` [Example 7, 3-fluorobenzyl (1-(2-cyanopyrimidin-4-yl)cyclopentyl)carbamate]: the half-maximal inhibitory concentration (IC50) at cathepsin B is over 10000 nM; at cathepsin K it was 56.3 nM; against cathepsin L, 3550 nM; on cathepsin S, over 10000 nM.
Take `N#Cc1nccc(C2(NC(=O)OCc3ccccc3)CCCCC2)n1` [Example 10, Benzyl (1-(2-cyanopyrimidin-4-yl)cyclohexyl)carbamate]: the half-maximal inhibitory concentration (IC50) against cathepsin B was over 10000 nM; on cathepsin K, 5.6 nM; at cathepsin L it was 1180 nM; at cathepsin S, 7010 nM.
`N#Cc1nccc(C2(NC(=O)OCc3ccc(Br)cc3)CCCCC2)n1` [Example 11, 4-bromobenzyl (1-(2-cyanopyrimidin-4-yl)cyclohexyl)carbamate]: the concentration for half-maximal inhibition (IC50) was over 10000 nM on cathepsin B, 18.8 nM on cathepsin K, over 10000 nM against cathepsin L and over 10000 nM at cathepsin S.
For the compound `N#Cc1nccc(C2(NC(=O)OCc3cccc(Br)c3)CCCCC2)n1` [Example 12, 3-bromobenzyl (1-(2-cyanopyrimidin-4-yl)cyclohexyl)carbamate], the IC50 against cathepsin B was over 10000 nM; on cathepsin K, 168 nM; on cathepsin L, 6910 nM; against cathepsin S, over 10000 nM.
Consider `Cc1cccc(COC(=O)NC2(c3ccnc(C#N)n3)CCCCC2)c1` [Example 13, 3-methylbenzyl (1-(2-cyanopyrimidin-4-yl)cyclohexyl)carbamate], for which the IC50 is over 10000 nM against cathepsin B, 241 nM on cathepsin K, 5080 nM against cathepsin L and over 10000 nM at cathepsin S.
In the case of `N#Cc1nccc(C2(NC(=O)OCc3cccc(C(F)(F)F)c3)CCCCC2)n1` [Example 14, 3-(trifluoromethyl)benzyl (1-(2-cyanopyrimidin-4-yl)cyclohexyl)carbamate], the IC50 at cathepsin B was over 10000 nM; on cathepsin K, 3700 nM; at cathepsin L it was 9230 nM; against cathepsin S, over 10000 nM.
For `N#Cc1nccc(C2(NC(=O)OCc3cccc(F)c3)CCCCC2)n1` [Example 15, 3-fluorobenzyl (1-(2-cyanopyrimidin-4-yl)cyclohexyl)carbamate], the IC50 was over 10000 nM at cathepsin B, 45.5 nM at cathepsin K, 1620 nM on cathepsin L and 8600 nM at cathepsin S.
The like results for `N#Cc1nccc(C2(NC(=O)OCc3cccc(Cl)c3)CCCCC2)n1` [Example 16, 3-chlorobenzyl (1-(2-cyanopyrimidin-4-yl)cyclohexyl)carbamate] were, in that order, over 10000 nM, 277 nM, 4610 nM and over 10000 nM.
For `Cc1ccccc1COC(=O)NC1(c2ccnc(C#N)n2)CCCCC1` [Example 17, 2-methylbenzyl (1-(2-cyanopyrimidin-4-yl)cyclohexyl)carbamate], in that order: over 10000 nM, 58.4 nM, 1420 nM and over 10000 nM.
The like results for `N#Cc1nccc(C2(NC(=O)OCc3ccccc3F)CCCCC2)n1` [Example 18, 2-fluorobenzyl (1-(2-cyanopyrimidin-4-yl)cyclohexyl)carbamate] were, in that order, over 10000 nM, 60.8 nM, 1740 nM and 8320 nM.
Turning to `N#Cc1nccc(C2(NC(=O)OCc3ccccc3Br)CCCCC2)n1` [Example 19, 2-bromobenzyl (1-(2-cyanopyrimidin-4-yl)cyclohexyl)carbamate], the concentration for half-maximal inhibition (IC50) against cathepsin B is over 10000 nM; at cathepsin K, 18 nM; on cathepsin L, 1060 nM; on cathepsin S, 5850 nM.
The like results for `N#Cc1nccc(C2(NC(=O)OCc3ccccc3C(F)(F)F)CCCCC2)n1` [Example 20, 2-(trifluoromethyl)benzyl (1-(2-cyanopyrimidin-4-yl)cyclohexyl)carbamate] were, in that order, over 10000 nM, 32.9 nM, 2010 nM and 9230 nM.
For `COc1ccccc1COC(=O)NC1(c2ccnc(C#N)n2)CCCCC1` [Example 21, 2-methoxybenzyl (1-(2-cyanopyrimidin-4-yl)cyclohexyl)carbamate], in that order: over 10000 nM, 83.8 nM, 2860 nM and over 10000 nM.
Take `Cc1ccc(COC(=O)NC2(c3ccnc(C#N)n3)CCCCC2)cc1` [Example 22, 4-methylbenzyl (1-(2-cyanopyrimidin-4-yl)cyclohexyl)carbamate]: the IC50 on cathepsin B is over 10000 nM; at cathepsin K, 37.2 nM; on cathepsin L, over 10000 nM; against cathepsin S it was over 10000 nM.
On to `N#Cc1nccc(C2(NC(=O)OCc3ccc(Cl)cc3)CCCCC2)n1` [Example 23, 4-chlorobenzyl (1-(2-cyanopyrimidin-4-yl)cyclohexyl)carbamate], for which the IC50 at cathepsin B was over 10000 nM; on cathepsin K it was 19.9 nM; against cathepsin L, over 10000 nM; against cathepsin S, over 10000 nM.
With `N#Cc1nccc(C2(NC(=O)OCc3ccc(C(F)(F)F)cc3)CCCCC2)n1` [Example 24, 4-(trifluoromethyl)benzyl (1-(2-cyanopyrimidin-4-yl)cyclohexyl)carbamate], the IC50 is over 10000 nM at cathepsin B, 37.9 nM at cathepsin K, over 10000 nM at cathepsin L and over 10000 nM on cathepsin S.
